Laboratory results published in US10758534B2 (Vertex Pharmaceuticals Incorporated, priority 2014, dated 2020).

Target: T1, F508del (Homo sapiens, UniProt P13569, DEL508-508)
T1 construct: expressed in transfected cells
Assay: Protocol 1: membrane potential optical assay (FLIPR III, voltage sensing dye), identification of potentiator compounds
Format: cell-based
Settings: Table 3, compounds of Table 1
Outline: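 Membrane potential in forskolin-activated, temperature-rescued F508del NIH 3T3 cells is followed with a voltage-sensing dye on FLIPR III. A chloride ion gradient created at the single addition step provides the driving force, after prior compound treatment.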

T1 sequence (P13569 with tags, fused parts or gaps DEL508-508): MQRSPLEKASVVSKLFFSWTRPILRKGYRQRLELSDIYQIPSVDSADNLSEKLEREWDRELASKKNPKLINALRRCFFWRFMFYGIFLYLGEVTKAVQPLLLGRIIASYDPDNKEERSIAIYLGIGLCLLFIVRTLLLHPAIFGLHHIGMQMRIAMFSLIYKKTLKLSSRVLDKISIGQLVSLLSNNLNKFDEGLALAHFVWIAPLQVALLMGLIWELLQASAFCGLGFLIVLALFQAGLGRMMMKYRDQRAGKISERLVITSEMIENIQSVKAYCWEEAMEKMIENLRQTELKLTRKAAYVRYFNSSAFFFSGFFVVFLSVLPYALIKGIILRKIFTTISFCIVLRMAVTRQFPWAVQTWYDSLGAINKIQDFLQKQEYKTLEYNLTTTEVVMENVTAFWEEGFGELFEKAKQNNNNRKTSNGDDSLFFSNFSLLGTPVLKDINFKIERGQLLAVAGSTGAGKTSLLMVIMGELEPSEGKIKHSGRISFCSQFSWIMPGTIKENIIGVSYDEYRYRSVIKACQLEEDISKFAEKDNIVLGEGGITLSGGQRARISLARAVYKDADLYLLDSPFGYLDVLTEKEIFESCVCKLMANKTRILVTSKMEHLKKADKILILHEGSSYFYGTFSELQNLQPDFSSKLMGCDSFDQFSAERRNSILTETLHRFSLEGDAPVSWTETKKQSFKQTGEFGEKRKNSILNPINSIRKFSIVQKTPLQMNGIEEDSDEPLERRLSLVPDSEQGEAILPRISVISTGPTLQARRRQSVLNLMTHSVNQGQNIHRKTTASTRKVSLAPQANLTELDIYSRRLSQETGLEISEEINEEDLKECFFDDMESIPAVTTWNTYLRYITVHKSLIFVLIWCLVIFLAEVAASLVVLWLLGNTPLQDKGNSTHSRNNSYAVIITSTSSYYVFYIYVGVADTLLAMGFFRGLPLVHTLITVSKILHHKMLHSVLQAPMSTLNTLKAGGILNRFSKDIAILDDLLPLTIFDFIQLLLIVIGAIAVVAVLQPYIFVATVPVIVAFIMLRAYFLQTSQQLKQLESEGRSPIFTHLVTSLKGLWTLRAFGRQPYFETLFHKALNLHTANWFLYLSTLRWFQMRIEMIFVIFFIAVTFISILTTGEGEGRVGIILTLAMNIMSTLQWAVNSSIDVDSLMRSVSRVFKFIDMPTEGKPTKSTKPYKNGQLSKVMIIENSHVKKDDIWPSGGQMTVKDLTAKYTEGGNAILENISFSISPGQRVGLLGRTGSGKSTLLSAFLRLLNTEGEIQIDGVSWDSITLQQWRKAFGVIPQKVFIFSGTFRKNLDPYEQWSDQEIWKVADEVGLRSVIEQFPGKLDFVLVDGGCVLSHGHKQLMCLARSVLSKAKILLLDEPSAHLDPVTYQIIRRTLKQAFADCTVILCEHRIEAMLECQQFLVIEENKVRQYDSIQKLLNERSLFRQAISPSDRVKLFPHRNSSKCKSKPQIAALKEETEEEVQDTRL

SMILES	EC30
CC(C)COc1cc(F)cc(-c2ccc(C(=O)NS(=O)(=O)c3ccccn3)c(N3C[C@@H](C)CC3(C)C)n2)c1 [Compound 1832, 6-(3-fluoro-5-isobutoxy-phenyl)-N-(2-pyridylsulfonyl)-2-[(4S)-2,2,4-trimethylpyrrolidin-1-yl]pyridine-3-carboxamide]	+++ (“+++” means <3 uM)
CC1CN(c2ncccc2C(=O)NS(=O)(=O)c2cccc(N3CCc4c([nH]c5ccccc45)C3)n2)C(C)(C)C1 (stereo not drawn) [Compound 1833, N—[[6-(1,3,4,9-tetrahydropyrido[3,4-b]indol-2-yl)-2-pyridyl]sulfonyl]-2-(2,2,4-trimethylpyrrolidin-1-yl)pyridine-3-carboxamide]	+++ (“+++” means <3 uM)
CC1CN(c2ncccc2C(=O)NS(=O)(=O)c2cccc(OC3CCCC3)n2)C(C)(C)C1 (stereo not drawn) [Compound 1834, N—[[6-(cyclopentoxy)-2-pyridyl]sulfonyl]-2-(2,2,4-trimethylpyrrolidin-1-yl)pyridine-3-carboxamide]	+++ (“+++” means <3 uM)
CC(C)COc1cc(F)cc(-c2ccc(C(=O)NS(=O)(=O)c3cccc(N)n3)c(N3CC(C(F)(F)F)CCC3C)n2)c1 (stereo not drawn) [Compound 1835, N-[(6-amino-2-pyridyl)sulfonyl]-6-(3-fluoro-5-isobutoxy-phenyl)-2-[2-methyl-5-(trifluoromethyl)-1-piperidyl]pyridine-3-carboxamide]	+++ (“+++” means <3 uM)
CC(C)COc1cc(F)cc(-c2ccc(C(=O)NS(=O)(=O)c3ccccc3O)c(N3C[C@@H](C)CC3(C)C)n2)c1 [Compound 1836, 6-(3-fluoro-5-isobutoxy-phenyl)-N-(2-hydroxyphenyl)sulfonyl-2-[(4S)-2,2,4-trimethylpyrrolidin-1-yl]pyridine-3-carboxamide]	+++ (“+++” means <3 uM)
C[C@@H]1CN(c2nc(-c3cc(F)cc(F)c3F)ccc2C(=O)NS(=O)(=O)c2ccc[nH]c2=O)C(C)(C)C1 [Compound 1837, N-[(2-oxo-1H-pyridin-3-yl)sulfonyl]-6-(2,3,5-trifluorophenyl)-2-[(4S)-2,2,4-trimethylpyrrolidin-1-yl]pyridine-3-carboxamide]	+++ (“+++” means <3 uM)
CC1CN(c2ncccc2C(=O)NS(=O)(=O)c2cccc(N3Cc4ccccc4C3)n2)C(C)(C)C1 (stereo not drawn) [Compound 1838, N-[(6-isoindolin-2-yl-2-pyridyl)sulfonyl]-2-(2,2,4-trimethylpyrrolidin-1-yl)pyridine-3-carboxamide]	+++ (“+++” means <3 uM)
Cc1cc(C)cc(-c2ccc(C(=O)NS(=O)(=O)N3CC[C@H](N)C3)c(N3C[C@@H](C)CC3(C)C)n2)c1 [Compound 1839, N-[(3S)-3-aminopyrrolidin-1-yl]sulfonyl-6-(3,5-dimethylphenyl)-2-[(4S)-2,2,4-trimethylpyrrolidin-1-yl]pyridine-3-carboxamide]	+++ (“+++” means <3 uM)
CC(C)COc1cc(F)cc(-c2ccc(C(=O)NS(=O)(=O)c3cccc(N)n3)c(N3CCC3C)n2)c1 (stereo not drawn) [Compound 1840, N-[(6-amino-2-pyridyl)sulfonyl]-6-(3-fluoro-5-isobutoxy-phenyl)-2-(2-methylazetidin-1-yl)pyridine-3-carboxamide]	+++ (“+++” means <3 uM)
CC1CN(c2ncccc2C(=O)NS(=O)(=O)c2cccc(Nc3cccc(Cl)c3)n2)C(C)(C)C1 (stereo not drawn) [Compound 1841, N—[[6-(3-chloroanilino)-2-pyridyl]sulfonyl]-2-(2,2,4-trimethylpyrrolidin-1-yl)pyridine-3-carboxamide]	+++ (“+++” means <3 uM)
CC1CN(c2ncccc2C(=O)NS(=O)(=O)c2cccc(O[C@H](C)c3ccccc3)n2)C(C)(C)C1 (stereo partly drawn) [Compound 1842, N—[[6-[(1R)-1-phenylethoxy]-2-pyridyl]sulfonyl]-2-(2,2,4-trimethylpyrrolidin-1-yl)pyridine-3-carboxamide]	+++ (“+++” means <3 uM)
CCOc1cc(C)cc(-c2cnc(N3CC(C)CC3(C)C)c(C(=O)NS(=O)(=O)c3cccc(N)n3)c2)c1 (stereo not drawn) [Compound 1843, N-[(6-amino-2-pyridyl)sulfonyl]-5-(3-ethoxy-5-methyl-phenyl)-2-(2,2,4-trimethylpyrrolidin-1-yl)pyridine-3-carboxamide]	+++ (“+++” means <3 uM)
C[C@@H]1CN(c2nc(C(C)(C)C)c(C(O)C(O)C3CCCCC3)cc2C(=O)NS(=O)(=O)c2cccc(N)n2)C(C)(C)C1 (stereo partly drawn) [Compound 1846]	+++ (“+++” means <3 uM)
CC1CN(c2ncc(-c3cccc(C#N)c3)cc2C(=O)NS(=O)(=O)c2cccc(N)n2)C(C)(C)C1 (stereo not drawn) [Compound 1849, N-[(6-amino-2-pyridyl)sulfonyl]-5-(3-cyanophenyl)-2-(2,2,4-trimethylpyrrolidin-1-yl)pyridine-3-carboxamide]	++ (“++” means between 3 uM and 10 uM)
CC(C)(C)c1ccc(C(=O)NS(=O)(=O)c2cccc(N)n2)c(N2CCC(Cc3ccccc3)C2(C)C)n1 (stereo not drawn) [Compound 1852, N-[(6-amino-2-pyridyl)sulfonyl]-2-(3-benzyl-2,2-dimethyl-pyrrolidin-1-yl)-6-tert-butyl-pyridine-3-carboxamide]	+++ (“+++” means <3 uM)

Next, values leading:

EC30	SMILES
+++ (“+++” means <3 uM)	CC(C)Oc1ccn(-c2ccc(C(=O)NS(=O)(=O)c3cccnc3N)c(N3C[C@@H](C)CC3(C)C)n2)n1 [Compound 1844, N-[(2-amino-3-pyridyl)sulfonyl]-6-(3-isopropoxypyrazol-1-yl)-2-[(4S)-2,2,4-trimethylpyrrolidin-1-yl]pyridine-3-carboxamide]
+++ (“+++” means <3 uM)	CCN(CC)c1cccc(-c2ccc(C(=O)NS(=O)(=O)c3cccnc3N)c(N3C[C@@H](C)CC3(C)C)n2)n1 [Compound 1845, N-[(2-amino-3-pyridyl)sulfonyl]-6-[6-(diethylamino)-2-pyridyl]-2-[(4S)-2,2,4-trimethylpyrrolidin-1-yl]pyridine-3-carboxamide]
+++ (“+++” means <3 uM)	CCOc1cccc(-c2ccc(C(=O)NS(=O)(=O)c3cccnc3N)c(N3C[C@@H](C)CC3(C)C)n2)c1F [Compound 1847, N-[(2-amino-3-pyridyl)sulfonyl]-6-(3-ethoxy-2-fluoro-phenyl)-2-[(4S)-2,2,4-trimethylpyrrolidin-1-yl]pyridine-3-carboxamide]
+++ (“+++” means <3 uM)	CCOc1ccccc1-c1ccc(C(=O)NS(=O)(=O)c2ccc[nH]c2=O)c(N2C[C@@H](C)CC2(C)C)n1 [Compound 1848, 6-(2-ethoxyphenyl)-N-[(2-oxo-1H-pyridin-3-yl)sulfonyl]-2-[(4S)-2,2,4-trimethylpyrrolidin-1-yl]pyridine-3-carboxamide]
+++ (“+++” means <3 uM)	C[C@@H]1CN(c2nc(C3CCOCC3)ccc2C(=O)NS(=O)(=O)c2cccnc2N)C(C)(C)C1 [Compound 1850, N-[(2-amino-3-pyridyl)sulfonyl]-6-tetrahydropyran-4-yl-2-[(4S)-2,2,4-trimethylpyrrolidin-1-yl]pyridine-3-carboxamide]
+++ (“+++” means <3 uM)	COc1ccc(-c2ccc(C(=O)NS(=O)(=O)c3cccnc3N)c(N3C[C@@H](C)CC3(C)C)n2)cc1F [Compound 1851, N-[(2-amino-3-pyridyl)sulfonyl]-6-(3-fluoro-4-methoxy-phenyl)-2-[(4S)-2,2,4-trimethylpyrrolidin-1-yl]pyridine-3-carboxamide]
